From paper PMC5560734, “Diflunisal inhibits prestin by chloride-dependent mechanism” (PLoS ONE, 2017) come the findings set out here.

This assay deals with T1, prestin (SLC26A5) (Mus musculus, UniProt Q99NH7).
T1 construct: endogenous prestin in isolated C57BL/6 mouse outer hair cells
T1 sequence (Q99NH7 1-744): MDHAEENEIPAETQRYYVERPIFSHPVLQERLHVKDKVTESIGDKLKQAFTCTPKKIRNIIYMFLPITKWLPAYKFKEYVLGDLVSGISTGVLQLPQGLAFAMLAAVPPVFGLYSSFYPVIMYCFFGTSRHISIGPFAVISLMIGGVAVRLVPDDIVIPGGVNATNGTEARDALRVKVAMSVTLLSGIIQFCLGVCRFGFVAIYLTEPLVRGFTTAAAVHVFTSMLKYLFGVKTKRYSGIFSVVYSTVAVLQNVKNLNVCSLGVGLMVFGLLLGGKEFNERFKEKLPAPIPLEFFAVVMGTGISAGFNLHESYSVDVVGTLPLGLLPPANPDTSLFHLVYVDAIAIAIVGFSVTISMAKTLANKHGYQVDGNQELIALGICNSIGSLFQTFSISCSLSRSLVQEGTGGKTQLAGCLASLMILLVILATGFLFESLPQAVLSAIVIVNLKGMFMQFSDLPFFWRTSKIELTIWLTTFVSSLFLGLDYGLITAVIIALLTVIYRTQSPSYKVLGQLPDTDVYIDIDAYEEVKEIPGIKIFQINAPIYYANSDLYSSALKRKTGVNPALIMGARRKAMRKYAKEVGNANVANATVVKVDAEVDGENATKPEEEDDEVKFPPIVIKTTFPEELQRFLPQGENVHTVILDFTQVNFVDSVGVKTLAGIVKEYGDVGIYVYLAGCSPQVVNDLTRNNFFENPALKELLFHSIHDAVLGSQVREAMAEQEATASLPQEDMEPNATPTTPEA
Briefly: whole-cell patch clamp of outer hair cells, non-linear capacitance / charge transfer (Qmax) at […] intracellular chloride. The format is cell-based. A general note: In patch-clamp work, channel activity is measured electrically.

Each structure is given as a SMILES string.

What is called IC50 is the point on the concentration scale where inhibition reaches its midpoint. A low value points to higher potency. Regarding `O=C(O)c1cc(-c2ccc(F)cc2F)ccc1O` [DFL, diflunisal], inhibition was half-maximal at 98 µM (IC50).
